Converted amounts (≈) assume the structure as drawn. Where a name gives a salt, the structure may show the parent alone.
How the values were obtained:
[1] = Solubilities at ambient temperature; type: physicochemical

Row | SMILES | melting point [°C] | further results
1 | O=C1C[C@H](c2ccccc2)c2cc(C(=O)O)ccc2O1 (as salt: salt) [Example 3, (R)-4-Phenyl-2-chromanone-6-carboxylic acid] | 197.5 | 
2 | O=C1CC(c2ccccc2)c2cc(C(=O)O)ccc2O1 (racemic) [Example 1, (R,S)-4-Phenyl-2-chromanone-6-carboxylic acid] | 246 | 
3 | O=C1C[C@H](c2ccccc2)c2cc(C(=O)O)ccc2O1 [Example 3, (R)-4-Phenyl-2-chromanone-6-carboxylic acid] | 224.9 | 
4 | CC(C)N(CC[C@H](c1ccccc1)c1cc(C(=O)O)ccc1O)C(C)C [Example 9, (R)-(−)-3-(Diisopropylamino-1-phenylpropyl)-4-hydroxybenzoic acid] | 102.3 | 
5 | CC(C)N(CC[C@H](c1ccccc1)c1cc(CO)ccc1O)C(C)C [Example 13, (R)-2-(3-diisopropylamino-1-phenylpropyl)-4-hydroxymethylphenol] |  | solubility ([1]; in water): ~10000 µg/mL (≈ 29.3 mM); solubility ([1]; organic solvent or mixture, in 2-butanone): < 200 µg/mL; solubility ([1]; organic solvent or mixture, in dichloromethane): < 200 µg/mL; solubility ([1]; organic solvent or mixture, in ethyl acetate): < 200 µg/mL; solubility ([1]; organic solvent or mixture, in methanol): > 50000 µg/mL

The next lines start with results.

Row | melting point [°C] | SMILES | further results
6 | 97 to 99 | COC(=O)c1ccc2c(c1)C(c1ccccc1)CC(=O)O2 (racemic) [Example 5a] | 
7 | 85.9 | CC(C)OC(=O)c1ccc2c(c1)C(c1ccccc1)CC(=O)O2 (racemic) [Example 5c] | 
8 | 143.7 | COC(=O)c1ccc(O)c([C@H](CCN(C(C)C)C(C)C)c2ccccc2)c1 [Example 8b, (R)-(−)-3-(3-Diisopropylamino-1-phenylpropyl)-4-hydroxybenzoic acid methyl ester] | 

Source: patent US6809214B2, “Shortened synthesis of 3,3-diarylpropylamine derivatives” (Schwartz Pharma AG, priority 2000, dated 2004)
